System: tissue PDH activity
Experiment: Ex vivo PDH activation assay (liver and epididymal adipose tissue after oral administration)
Assay type: in vivo, Sprague-Dawley rats
Conditions: 3 mg/kg, rat, mean ± standard deviation
Experimental: The action of test compound on tissue PDH activity was evaluated. NADH production was detected via p-iodonitrotetrazolium violet (INT)-coupled system to measure PDH activity.
Normal male Sprague-Dawley rats were randomly allocated to the vehicle group and the test compound groups. The vehicle (0.5% aqueous methylcellulose solution, 5 mL/kg) or the test compound was orally administered to the rats. At 5 or 20 hr after administration, the rats were anesthetized with an intraperitoneal injection of sodium pentobarbital (60 mg/kg), and liver slices and epididymal adipose tissues were collected.
(§1) To the liver slices were rapidly added 9 volumes of ice-cold homogenization buffer (0.25 mol/L sucrose, 5 mmol/L tris(hydroxymethyl)aminomethane hydrochloride (pH 7.5), 2 mmol/L EDTA), and the mixtures were homogenized using a Polytron homogenizer. The homogenates were centrifuged at 600×g, 4° C. for 10 min to obtain the supernatant. The supernatants (1 mL) were centrifuged at 16,000×g, 4° C. for 10 min to collect the precipitates. The precipitates were washed by resuspension in the homogenization buffer (1 mL) and centrifuged in the same manner. The precipitates were frozen with liquid nitrogen and stored at −80° C. as the liver mitochondrial fraction.
as §1, with “adipose tissues” for “liver slices”, “3” for “9”, “of an” for “of”, “buffer,” for “buffer (0.25 mol/L sucrose, 5 mmol/L tris(hydroxymethyl)aminomethane hydrochloride (pH 7.5), 2 mmol/L EDTA),”, “supernatants” for “supernatants (1 mL)”, “adipose tissue” for “liver”
The mitochondrial fractions were thawed and suspended with the sample buffer (0.25 mol/L sucrose, 20 mmol/L tris(hydroxymethyl)aminomethane hydrochloride (pH 7.5), 50 mmol/L potassium chloride, and 1 mL/L 4-(1,1,3,3-tetramethylbutyl)phenyl-polyethylene glycol (Triton X-100)). Active PDH activity (PDHa activity) and total PDH activity (PDHt activity) were measured to evaluate the PDH activity. For the measurement of the PDHt activity, equal amounts of the mitochondrial suspension and the activation buffer (0.25 mol/L sucrose, 20 mmol/L tris(hydroxymethyl)aminomethane hydrochloride (pH 7.5), 50 mmol/L potassium chloride, 1 mL/L Triton X-100, 4 mmol/L calcium chloride, 40 mmol/L magnesium chloride, 10 mmol/L sodium dichloroacetate) were mixed, and the mixtures were incubated at 37° C. for 10 min. Forty microliters of the mitochondrial suspensions diluted with a sample buffer were added to a 96-well microplate for activity measurement and blank measurement. Then 180 μL of the reaction mixture (0.056 mmol/L potassium phosphate buffer (pH 7.5), 5.6 mmol/L DL-carnitine, 2.8 mmol/L NAD, 0.22 mmol/L thiamin pyrophosphate, 0.11 mmol/L Coenzyme A, 1.1 mL/L Triton X-100, 1.1 mmol/L magnesium chloride, 1.1 g/L bovine serum albumin, 0.67 mmol/L INT, 7.2 μmol/L phenazine methosulfate, 28 mmol/L sodium oxamate) was added to each well, and then 20 μL of 50 mmol/L sodium pyruvate for activity measurement or water for blank measurement were added. The mixtures were incubated at room temperature under shading. The absorbances at 500-750 nm, which were attributable to reduction of INT, the final electron acceptor, were measured using a microplate reader over time and the changes in the absorbance were calculated. The PDH activity was calculated by subtraction of the change in absorbance of the blank well from that of the activity measurement well. The percentage of the PDHa activity to the PDHt activity was calculated and taken as an index of the PDH activation.

[1] = adipose tissue, 5 hr after oral administration
[2] = adipose tissue, 20 hr after oral administration
[3] = liver, 5 hr after oral administration
[4] = liver, 20 hr after oral administration

Compound | PDHa activity (% PDHt activity) [1] [% PDHt activity] | PDHa activity (% PDHt activity) [2] [% PDHt activity] | PDHa activity (% PDHt activity) [3] [% PDHt activity] | PDHa activity (% PDHt activity) [4] [% PDHt activity]
C[C@H](O)COc1cc(-c2cnn(CC(C)(C)O)c2)c2c(c1)[C@@](O)(C(F)(F)F)c1ccccc1-2 [compound (1), (9R)-4-[1-(2-hydroxy-2-methylpropyl)-1H-pyrazol-4-yl]-2-((2S)-2-hydroxypropoxy)-9-(trifluoromethyl)-9H-fluoren-9-ol] | 64 ± 5 | 56 ± 6 | 60 ± 8 | 13 ± 2
CC(C)(O)COc1cc(-c2cnn(CC(C)(C)O)c2)c2c(c1)[C@@](O)(C(F)(F)F)c1ccccc1-2 [compound (2), (9R)-2-(2-hydroxy-2-methylpropoxy)-4-[1-(2-hydroxy-2-methylpropyl)-1H-pyrazol-4-yl]-9-(trifluoromethyl)-9H-fluoren-9-ol] | 58 ± 10 | 36 ± 7 | 67 ± 9 | 16 ± 9
CC(C)(O)CCCOc1cc(-c2cnn(CC(C)(C)O)c2)c2c(c1)[C@@](O)(C(F)(F)F)c1ccccc1-2 [compound (4), (9R)-2-(4-hydroxy-4-methylpentyloxy)-4-[1-(2-hydroxy-2-methylpropyl)-1H-pyrazol-4-yl]-9-(trifluoromethyl)-9H-fluoren-9-ol] | 62 ± 13 |  | 68 ± 11 | 
NC(=O)Cn1cc(-c2cc(OCCC34CC5CC(CC(O)(C5)C3)C4)cc3c2-c2ccccc2[C@]3(O)C(F)(F)F)cn1 [compound (A), 2-(4-{(9R)-9-Hydroxy-2-[2-(3-hydroxyadamantan-1-yl)ethoxy]-9-(trifluoromethyl)-9H-fluoren-4-yl}-1H-pyrazol-1-yl)acetamide, reference compound] | 32 ± 14 | 24 ± 7 | 35 ± 6 | 16 ± 10
Cn1cc(-c2cc(OCC(C)(C)O)cc3c2-c2ccccc2[C@]3(O)C(F)(F)F)cn1 [compound (B), (9R)-2-(2-Hydroxy-2-methylpropoxy)-4-(1-methyl-1H-pyrazol-4-yl)-9-(trifluoromethyl)-9H-fluoren-9-ol, reference compound] | 59 ± 5 | 30 ± 4 | 43 ± 7 | 10 ± 3

Source: US20150025120A1, “PYRAZOLE-ALCOHOL COMPOUNDS AND PHARMACEUTICAL USE THEREOF” (JAPAN TOBACCO INC., priority 2013, published 2015)
